Data reported in ChEMBL document CHEMBL1131286, “Design and synthesis of m1-selective muscarinic agonists: (R)-(-)-(Z)-1-Azabicyclo[2.2.1]heptan-3-one, O-(3-(3'-methoxyphenyl)-2-propynyl)oxime maleate (CI-1017), a functionally m1-selective muscarinic agonist” (J Med Chem, 1998).
Activity calls are given as the source filed them. The rule behind the calls is not given here.

Columns and labels:
[1] = target: T1, Muscarinic acetylcholine receptor M4 (Homo sapiens) (UniProt P08173); test: Maximal response obtained for each drug normalized to effect of carbachol in Muscarinic acetylcholine receptor M4; format: functional
T1 sequence (whole entry): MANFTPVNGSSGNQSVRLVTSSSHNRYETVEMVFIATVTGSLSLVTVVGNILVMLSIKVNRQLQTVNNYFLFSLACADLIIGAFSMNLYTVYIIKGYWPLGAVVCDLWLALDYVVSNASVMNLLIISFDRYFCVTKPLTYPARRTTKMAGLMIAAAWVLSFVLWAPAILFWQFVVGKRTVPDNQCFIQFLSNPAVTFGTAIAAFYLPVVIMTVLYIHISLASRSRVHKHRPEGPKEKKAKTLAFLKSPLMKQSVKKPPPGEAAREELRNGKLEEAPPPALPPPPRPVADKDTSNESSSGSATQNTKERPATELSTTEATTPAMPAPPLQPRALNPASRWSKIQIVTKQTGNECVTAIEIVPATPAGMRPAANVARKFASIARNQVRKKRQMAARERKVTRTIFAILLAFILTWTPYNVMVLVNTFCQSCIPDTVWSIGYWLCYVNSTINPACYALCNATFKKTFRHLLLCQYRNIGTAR

[2] = target: T2, Muscarinic acetylcholine receptor M1 (Homo sapiens, UniProt P11229); test: biochemical; format: cell-based, CHO
T2 sequence (P11229 whole entry): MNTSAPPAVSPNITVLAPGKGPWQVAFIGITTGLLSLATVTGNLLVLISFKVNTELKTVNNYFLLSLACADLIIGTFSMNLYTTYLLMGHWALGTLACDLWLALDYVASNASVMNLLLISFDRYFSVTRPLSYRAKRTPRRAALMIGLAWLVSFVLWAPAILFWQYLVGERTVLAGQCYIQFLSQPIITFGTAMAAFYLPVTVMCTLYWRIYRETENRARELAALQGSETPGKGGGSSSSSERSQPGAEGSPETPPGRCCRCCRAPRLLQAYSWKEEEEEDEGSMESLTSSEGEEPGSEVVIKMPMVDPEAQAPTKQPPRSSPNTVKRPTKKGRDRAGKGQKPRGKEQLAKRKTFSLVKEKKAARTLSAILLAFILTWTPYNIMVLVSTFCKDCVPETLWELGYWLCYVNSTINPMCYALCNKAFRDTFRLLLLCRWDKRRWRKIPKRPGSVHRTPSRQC
Description: Binding affinity of [3H]-QNB to CHO cells expressing human Muscarinic acetylcholine receptor M1

[3] = target: Muscarinic acetylcholine receptor M3 (Homo sapiens) (UniProt P20309); test: Maximal response obtained for each drug normalized to effect of carbachol in Muscarinic acetylcholine receptor M3; format: functional
Sequence of Muscarinic acetylcholine receptor M3 (Homo sapiens) (P20309 whole entry, looked up): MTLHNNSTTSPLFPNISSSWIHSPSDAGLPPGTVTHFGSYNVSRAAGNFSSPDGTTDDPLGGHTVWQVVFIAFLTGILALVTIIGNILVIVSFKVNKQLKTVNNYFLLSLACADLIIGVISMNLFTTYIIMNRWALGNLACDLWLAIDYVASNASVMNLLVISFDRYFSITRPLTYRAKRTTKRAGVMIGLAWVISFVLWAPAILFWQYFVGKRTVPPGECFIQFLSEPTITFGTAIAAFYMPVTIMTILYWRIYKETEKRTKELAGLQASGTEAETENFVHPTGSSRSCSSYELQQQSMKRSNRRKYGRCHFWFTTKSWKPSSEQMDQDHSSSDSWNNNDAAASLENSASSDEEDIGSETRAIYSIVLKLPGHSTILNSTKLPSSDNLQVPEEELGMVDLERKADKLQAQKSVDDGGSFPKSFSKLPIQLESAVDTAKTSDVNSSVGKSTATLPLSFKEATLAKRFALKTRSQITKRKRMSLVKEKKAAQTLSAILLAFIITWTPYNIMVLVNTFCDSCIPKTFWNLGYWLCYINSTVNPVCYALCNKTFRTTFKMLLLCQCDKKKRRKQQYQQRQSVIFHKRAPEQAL

[4] = target: Muscarinic acetylcholine receptor M3 (Homo sapiens) (UniProt P20309); test: Inositol phosphate(PI) accumulation in CHO cells expressing Muscarinic acetylcholine receptor M3 as maximal response at 100 uM relative to carbachol; format: functional, cell-based
[5] = target: T3, Muscarinic acetylcholine receptor M2 (Homo sapiens) (UniProt P08172); test: Amplification of transfected NIH3T3 cells was measured in Muscarinic acetylcholine receptor M2 required to produce half maximal effect; format: functional, cell-based
T3 sequence (whole entry): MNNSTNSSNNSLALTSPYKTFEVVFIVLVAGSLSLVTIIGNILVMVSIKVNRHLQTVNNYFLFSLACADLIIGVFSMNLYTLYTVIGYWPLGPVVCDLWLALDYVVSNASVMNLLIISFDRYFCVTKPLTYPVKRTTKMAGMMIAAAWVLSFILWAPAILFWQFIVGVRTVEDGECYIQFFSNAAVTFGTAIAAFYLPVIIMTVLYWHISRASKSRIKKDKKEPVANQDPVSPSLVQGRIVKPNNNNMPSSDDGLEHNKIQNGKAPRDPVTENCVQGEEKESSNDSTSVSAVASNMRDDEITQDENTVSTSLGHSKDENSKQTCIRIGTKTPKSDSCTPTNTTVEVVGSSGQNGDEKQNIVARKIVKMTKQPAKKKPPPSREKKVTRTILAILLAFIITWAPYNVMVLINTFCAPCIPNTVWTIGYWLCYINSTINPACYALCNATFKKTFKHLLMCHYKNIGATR

[6] = target: T4, Muscarinic acetylcholine receptor M5 (Homo sapiens) (UniProt P08912); test: Maximal response obtained for each drug normalized to effect of carbachol in Muscarinic acetylcholine receptor M5; format: functional
T4 sequence (whole entry): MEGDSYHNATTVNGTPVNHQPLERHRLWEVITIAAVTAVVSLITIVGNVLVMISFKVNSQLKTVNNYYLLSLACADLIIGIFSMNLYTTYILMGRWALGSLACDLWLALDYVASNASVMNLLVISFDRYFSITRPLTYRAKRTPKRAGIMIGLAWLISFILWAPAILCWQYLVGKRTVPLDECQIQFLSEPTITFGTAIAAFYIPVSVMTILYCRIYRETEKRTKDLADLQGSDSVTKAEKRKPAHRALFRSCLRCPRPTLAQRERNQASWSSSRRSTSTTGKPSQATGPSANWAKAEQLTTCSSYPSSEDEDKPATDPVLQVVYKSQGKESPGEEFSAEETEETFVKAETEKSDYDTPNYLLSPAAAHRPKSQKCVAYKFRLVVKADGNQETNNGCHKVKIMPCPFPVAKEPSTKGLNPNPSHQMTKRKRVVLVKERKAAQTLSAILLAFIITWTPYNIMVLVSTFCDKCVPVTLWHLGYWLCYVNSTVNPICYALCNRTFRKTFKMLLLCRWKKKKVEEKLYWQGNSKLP

[7] = target: T4, Muscarinic acetylcholine receptor M5 (Homo sapiens); test: Stimulations of inositol phosphate(PI) accumulation in transfected CHO cells in Muscarinic acetylcholine receptor M5 values are the maximal response obtained from the compound tested at 100 uM normalized to the effects of carbachol.; format: functional, cell-based
[8] = target: T4, Muscarinic acetylcholine receptor M5 (Homo sapiens); test: Amplification of transfected NIH3T3 cells was measured in Muscarinic acetylcholine receptor M5 required to produce half maximal effect; format: functional, cell-based
[9] = target: T3, Muscarinic acetylcholine receptor M2 (Homo sapiens); test: Maximal response obtained for each drug normalized to effect of carbachol in Muscarinic acetylcholine receptor M2; format: functional
[10] = target: T3, Muscarinic acetylcholine receptor M2 (Homo sapiens); test: Reversal of forskolin-stimulated accumulation of […] in transfected CHO cells, against Muscarinic acetylcholine receptor M2; Not active up to 1 mM; format: functional, cell-based
[11] = target: T5, Muscarinic acetylcholine receptor M2 (Homo sapiens, UniProt P08172); test: Binding affinity of [3H]QNB to CHO cells expressing human Muscarinic acetylcholine receptor M2; format: cell-based
T5 sequence (P08172 whole entry): T3 sequence (whole entry)

[12] = target: T1, Muscarinic acetylcholine receptor M4 (Homo sapiens); test: Amplification of transfected NIH3T3 cells was measured in Muscarinic acetylcholine receptor M4 required to produce half maximal effect; format: functional, cell-based
[13] = target: T1, Muscarinic acetylcholine receptor M4 (Homo sapiens); test: Reversal of forskolin-stimulated accumulation of […] in transfected CHO cells, against Muscarinic acetylcholine receptor M4; NA=Not active up to 1 mM; format: functional, cell-based
[14] = target: T6, Muscarinic acetylcholine receptor M1 (Homo sapiens) (UniProt P11229); test: Maximal response obtained for each drug normalized to effect of carbachol in Muscarinic acetylcholine receptor M1; format: functional
T6 sequence (whole entry): T2 sequence (P11229 whole entry)

[15] = target: T6, Muscarinic acetylcholine receptor M1 (Homo sapiens); test: Stimulation of inositol phosphate(PI) accumulation in CHO cells expressing Muscarinic acetylcholine receptor M1 as maximal response at 100 uM relative to carbachol; format: functional, cell-based
[16] = target: Muscarinic acetylcholine receptor (Rattus norvegicus) (UniProt P08482+P08483+P08485+P08911+P10980); test: Ratio of QNB binding to CMD binding was evaluated; format: protein assay
[17] = target: T6, Muscarinic acetylcholine receptor M1 (Homo sapiens); conditions: NIH3T3
Description: Amplification of transfected NIH3T3 cells was measured in Muscarinic acetylcholine receptor M1 required to produce half maximal effect

[18] = target: Muscarinic acetylcholine receptor M3 (Homo sapiens) (UniProt P20309); conditions: NIH3T3
Description: Amplification of transfected NIH3T3 cells was measured in Muscarinic acetylcholine receptor M3 required to produce half maximal effect

[19] = target: T6, Muscarinic acetylcholine receptor M1 (Homo sapiens); test: Stimulations of inositol phosphate(PI) accumulation in transfected CHO cells in Muscarinic acetylcholine receptor M1 values are the maximal response obtained from the compound tested at 100 uM normalized to the effect of carbachol.; format: functional, cell-based
[20] = target: Muscarinic acetylcholine receptor M3 (Homo sapiens) (UniProt P20309); test: Stimulations of inositol phosphate(PI) accumulation in transfected CHO cells in Muscarinic acetylcholine receptor M3 values are the maximal response obtained from the compound tested at 100 uM normalized to the effect of carbachol.; format: functional, cell-based
[21] = target: T4, Muscarinic acetylcholine receptor M5 (Homo sapiens); test: Stimulations of inositol phosphate(PI) accumulation in transfected CHO cells in Muscarinic acetylcholine receptor M5 values are the maximal response obtained from the compound tested at 100 uM normalized to the effect of carbachol.; format: functional, cell-based
[22] = target: T1, Muscarinic acetylcholine receptor M4 (Homo sapiens); test: Reversal of forskolin-stimulated accumulation of […] in transfected CHO cells, against Muscarinic acetylcholine receptor M4; Not active; format: functional, cell-based
[23] = target: Muscarinic acetylcholine receptor; test: Muscarinic acetylcholine receptor binding assay was conducted using [3H]cis-methyldioxolane (CMD) to label agonist sites in membrane preparations from rat neocortex
[24] = target: T2, Muscarinic acetylcholine receptor M1; test: Binding affinity of compound labeled by [3H]QNB in CHO cells selectively expressing human Muscarinic acetylcholine receptor M1; format: cell-based
[25] = target: Muscarinic acetylcholine receptor; test: Muscarinic acetylcholine receptor binding assay was conducted using [3H]quinuclidinyl benzilate (QNB) to label antagonist sites in membrane preparations from rat neocortex
[26] = target: T5, Muscarinic acetylcholine receptor M2; test: Binding affinity of compound labeled by [3H]QNB in CHO cells selectively expressing human Muscarinic acetylcholine receptor M2; format: cell-based
[27] = target: T4, Muscarinic acetylcholine receptor M5 (Homo sapiens); test: Inositol phosphate(PI) accumulation in CHO cells expressing Muscarinic acetylcholine receptor M5 as maximal response at 100 uM relative to carbachol; format: functional, cell-based
[28] = target: T6, Muscarinic acetylcholine receptor M1 (Homo sapiens); test: Stimulations of inositol phosphate(PI) accumulation in transfected CHO cells in Muscarinic acetylcholine receptor M1 values are the maximal response obtained from the compound tested at 100 uM normalized to the effects of carbachol.; format: functional, cell-based

With `COc1cccc(C#CCO/N=C2\CN3CCC2C3)c1` (stereo not given) as the molecule, how does the CCh [1] read?
The CCh was 68%.

And the IC50 [2]?
Its IC50 is 7680 nM.

And the CCh [3]?
Its CCh is 93%.

And the CCh [4]?
Its CCh is 6%.

What about the ED50 [5] of the same molecule?
The ED50 was 1320 nM.

What about the CCh [6] of the same molecule?
Its CCh is 103%.

And the CCh [7]?
The CCh was 11%.

And the ED50 [8]?
The ED50 was 5990 nM.

And the CCh [9]?
Its CCh is 81%.

And the ED50 [10]?
Its ED50 is “inactive”.

And the IC50 [11]?
The IC50 was 52000 nM.

And the ED50 [12]?
The ED50 was 93 nM.

What about the ED50 [13] of the same molecule?
Its ED50 is “inactive”.

What about the CCh [14] of the same molecule?
The CCh was 30%.

What about the CCh [15] of the same molecule?
Its CCh is 82%.

What about the Ratio [16] of the same molecule?
The Ratio was 250.

And the ED50 [17]?
Its ED50 is 42 nM.

What about the ED50 [18] of the same molecule?
The ED50 was 3860 nM.

What does the source list for `C(#Cc1ccccc1)CO/N=C1\CN2CCC1C2` (stereo not given)?
Stimulations [19]: 40%; Stimulations [20]: 8%; Stimulations [21]: 1%; ED50 [10]: inactive; ED50 [22]: inactive; Ratio [16]: 108

`CC(C)=CCO/N=C1\CN2CCC1C2` (stereo not given) was tested. Which IC50 [23] did it give?
The IC50 was 7.08 nM.

And the IC50 [24]?
Its IC50 is 216 nM.

What about the IC50 [25] of the same molecule?
The IC50 was 1270 nM.

What about the IC50 [26] of the same molecule?
The IC50 was 519 nM.

What about the Ratio [16] of the same molecule?
Its Ratio is 179.

Which IC50 [2] does the source give for `Clc1cccc(C#CCO/N=C2\CN3CCC2C3)c1` (stereo not given) here?
Its IC50 is 3340 nM.

What about the CCh [4] of the same molecule?
The CCh was 4%.

What about the CCh [27] of the same molecule?
Its CCh is 3%.

And the IC50 [11]?
Its IC50 is 20600 nM.

And the CCh [28]?
Its CCh is 41%.

And the Ratio [16]?
The Ratio was 203.
